Experimental data taken from patent US20100093532A1, “Pesticidal Mixtures Comprising Phenylsemicarbazone and Clothianidin” (BASF SE, priority 2007, published 2010).

Tested on: Mediterranean fruitfly (Ceratitis capitata)
Experiment: Control of Mediterranean fruitfly, egg and larval mortality in 96-well microtiter plates with insect diet
Assay type: in vivo
Details: sprayed onto insect diet with C. capitata eggs, 5 days at 28±1° C., 80±5% RH, egg and larval mortality visually assessed
Description: For evaluating control of Mediterranean fruitfly (Ceratitis capitata) the test unit consisted of 96-well-microtiter plates containing an insect diet and 50-80 C. capitata eggs. The compounds or mixtures were formulated using a solution containing 75% water and 25% DMSO. Different concentrations of formulated compounds or mixtures were sprayed onto the insect diet at 5 μl, using a custom built micro atomizer, at two replications.
For experimental mixtures in these tests identical volumes of both mixing partners at the desired concentrations respectively, were mixed together.
After application, microtiter plates were incubated at 28±1° C., 80±5% RH (relative humidity) for 5 days. Egg and larval mortality was then visually assessed.

SMILES | Average Control (%) (Metaflumizone 20 ppm) | Average Control (%) (Clothianidin 2 ppm)
N#Cc1ccc(CC(=NNC(=O)Nc2ccc(OC(F)(F)F)cc2)c2cccc(C(F)(F)F)c2)cc1 (racemic) [Metaflumizone, 2-[2-(4-cyanophenyl)-1-[3-(trifluoromethyl)phenyl]ethylidene]-N-[4-(trifluoromethoxy)phenyl]hydrazinecarboxamide] | 0% | 
CN/C(=N\[N+](=O)[O-])NCc1cnc(Cl)s1 [Clothianidin, (E)-1-(2-chloro-1,3-thiazol-5-ylmethyl)-3-methyl-2-nitroguanidine] |  | 0%
